Data taken from patent US12077503B2, “Substituted cyclic amides and their use as herbicides” (FMC CORPORATION, priority 2015, dated 2024).
Like-named read-outs stand apart in the source and are kept apart here.

Key:
Type in all cases: in vivo
[1] = test system: pigweed (Amaranthus retroflexus); experiment: Test A preemergence; details: Amaranthus retroflexus, pre-emergence, 240 h; for pest or weed control at 125 g/ha: 125 g ai/ha; for pest or weed control at 500 g/ha: 500 g ai/ha
[2] = test system: Galium (catchweed bedstraw, Galium aparine); experiment: Test A postemergence; details: Galium, post-emergence, 240 h, postemergence; for pest or weed control at 125 g/ha: 125 g ai/ha
Outline: (§1)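 Seeded soil received test chemicals as a preemergence directed spray, and seedlings at one to two leaves, 2–10 cm tall, received them postemergence, in a non-phytotoxic, surfactant-containing solvent mixture. Pots were held in a greenhouse for approximately 10 d, then rated for injury from 0, no effect, to 100, complete control.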

Kochia (Kochia scoparia) = experiment: Test A postemergence; details: Bassia scoparia, post-emergence, 240 h, postemergence; for pest or weed control at 125 g/ha: 125 g ai/ha
Outline: as §1

[3] = test system: barnyardgrass (Echinochloa crus-galli); experiment: Test A postemergence; details: Echinochloa crus-galli, post-emergence, 240 h, postemergence; for pest or weed control at 125 g/ha: 125 g ai/ha
Outline: as §1

[4] = test system: blackgrass (Alopecurus myosuroides); experiment: Test A postemergence; details: Alopecurus myosuroides, post-emergence, 240 h, postemergence; for pest or weed control at 125 g/ha: 125 g ai/ha
Outline: as §1

corn (Zea mays) = experiment: Test A postemergence; details: Zea mays, post-emergence, 240 h, postemergence; for plant injury at 125 g/ha: 125 g ai/ha
Outline: as §1

[5] = test system: giant foxtail (Setaria faberii); experiment: Test A postemergence; details: Setaria faberi, post-emergence, 240 h, postemergence; for pest or weed control at 125 g/ha: 125 g ai/ha
Outline: as §1

[6] = test system: pigweed (Amaranthus retroflexus); experiment: Test A postemergence; details: Amaranthus retroflexus, post-emergence, 240 h, postemergence; for pest or weed control at 125 g/ha: 125 g ai/ha
Outline: as §1

[7] = test system: ragweed (common ragweed, Ambrosia elatior); experiment: Test A postemergence; details: Ambrosia artemisiifolia, post-emergence, 240 h, postemergence; for pest or weed control at 125 g/ha: 125 g ai/ha
Outline: as §1

[8] = test system: ryegrass, Italian (Italian ryegrass, Lolium multiflorum); experiment: Test A postemergence; details: Lolium multiflorum, post-emergence, 240 h, postemergence; for pest or weed control at 125 g/ha: 125 g ai/ha
Outline: as §1

[9] = test system: wheat (Triticum aestivum); experiment: Test A postemergence; details: Triticum aestivum, post-emergence, 240 h, postemergence; for plant injury at 125 g/ha: 125 g ai/ha
Outline: as §1

[10] = test system: barnyardgrass (Echinochloa crus-galli); experiment: Test B flooded paddy test; details: Echinochloa crus-galli, 250 g ai/ha, Flood, read-out: Barnyardgrass plant response rating
Outline: (§2)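 Evaluation by eye, against controls, occurred 13–15 d post-treatment in a greenhouse, using a 0 (no effect) to 100 (complete control) scale. Application was into the paddy water, 3 cm deep over the soil, on 2-leaf plants.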

[11] = test system: ducksalad (Heteranthera limosa); experiment: Test B flooded paddy test; details: Heteranthera limosa, 250 g ai/ha, Flood, read-out: Ducksalad plant response rating
Outline: as §2

rice (Oryra sativa) = experiment: Test B flooded paddy test; details: Oryza sativa, 250 g ai/ha, Flood, read-out: Rice plant response rating
Outline: as §2

[12] = test system: sedge, umbrella (small-flower umbrella sedge, Cyperus difformis); experiment: Test B flooded paddy test; details: Cyperus difformis, 250 g ai/ha, Flood, read-out: Sedge, Umbrella plant response rating
Outline: as §2

[13] = preemergence, 0 to 100 scale where 0 is no effect and 100 is complete control, read-out: Pigweed plant response rating
[14] = 0 to 100 scale where 0 is no effect and 100 is complete control
[15] = scale of 0 to 100 where 0 is no effect and 100 is complete control

SMILES: CSc1ccccc1NC(=O)[C@H]1C(=O)NC[C@@H]1c1cc(F)c(F)c(F)c1 [Compound 1124]
- pest or weed control at 125 g/ha ([1]; preemergence, 0 to 100 scale where 0 is no effect and 100 is complete control, approx. 10 d, read-out: Pigweed plant response rating): 50%
- pest or weed control at 500 g/ha [1, 13]: 70%
- pest or weed control at 125 g/ha ([2]; visual injury on 0 to 100 scale (0 no effect, 100 complete control), approx. 10 d, read-out: Galium plant response rating): 50%
- pest or weed control at 500 g/ha ([2]; 500 g ai/ha, 0 to 100 scale, 0 is no effect, 100 is complete control, read-out: Galium plant response rating): 60%
- pest or weed control at 125 g/ha (Kochia (Kochia scoparia); visual injury on 0 to 100 scale (0 no effect, 100 complete control), approx. 10 d, read-out: Kochia plant response rating): 60%
- pest or weed control at 500 g/ha (Kochia (Kochia scoparia); 500 g ai/ha, 0 to 100 scale, 0 is no effect, 100 is complete control, read-out: Kochia plant response rating): 70%
- pest or weed control at 125 g/ha ([3]; visual injury on 0 to 100 scale (0 no effect, 100 complete control), approx. 10 d, read-out: Barnyardgrass plant response rating): 60%
- pest or weed control at 500 g/ha ([3]; 500 g ai/ha, 0 to 100 scale, 0 is no effect, 100 is complete control, read-out: Barnyardgrass plant response rating): 90%
- pest or weed control at 125 g/ha ([4]; visual injury on 0 to 100 scale (0 no effect, 100 complete control), approx. 10 d, read-out: Blackgrass plant response rating): 0%
- pest or weed control at 500 g/ha ([4]; 500 g ai/ha, 0 to 100 scale, 0 is no effect, 100 is complete control, read-out: Blackgrass plant response rating): 0%
- plant injury at 125 g/ha (corn (Zea mays); visual injury on 0 to 100 scale (0 no effect, 100 complete control), approx. 10 d, read-out: Corn plant response rating): 0%
- plant injury at 500 g/ha (corn (Zea mays); 500 g ai/ha, 0 to 100 scale, 0 is no effect, 100 is complete control, read-out: Corn plant response rating): 0%
- pest or weed control at 125 g/ha ([5]; visual injury on 0 to 100 scale (0 no effect, 100 complete control), approx. 10 d, read-out: Foxtail, Giant plant response rating): 60%
- pest or weed control at 500 g/ha ([5]; 500 g ai/ha, 0 to 100 scale, 0 is no effect, 100 is complete control, read-out: Foxtail, Giant plant response rating): 90%
- pest or weed control at 125 g/ha ([6]; visual injury on 0 to 100 scale (0 no effect, 100 complete control), approx. 10 d, read-out: Pigweed plant response rating): 0%
- pest or weed control at 500 g/ha ([6]; 500 g ai/ha, 0 to 100 scale, 0 is no effect, 100 is complete control, read-out: Pigweed plant response rating): 60%
- pest or weed control at 125 g/ha ([7]; visual injury on 0 to 100 scale (0 no effect, 100 complete control), approx. 10 d, read-out: Ragweed plant response rating): 0%
- pest or weed control at 500 g/ha ([7]; 500 g ai/ha, 0 to 100 scale, 0 is no effect, 100 is complete control, read-out: Ragweed plant response rating): 50%
- pest or weed control at 125 g/ha ([8]; visual injury on 0 to 100 scale (0 no effect, 100 complete control), approx. 10 d, read-out: Ryegrass, Italian plant response rating): 0%
- pest or weed control at 500 g/ha ([8]; 500 g ai/ha, 0 to 100 scale, 0 is no effect, 100 is complete control, read-out: Ryegrass, Italian plant response rating): 0%
- plant injury at 125 g/ha ([9]; visual injury on 0 to 100 scale (0 no effect, 100 complete control), approx. 10 d, read-out: Wheat plant response rating): 0%
- plant injury at 500 g/ha ([9]; 500 g ai/ha, 0 to 100 scale, 0 is no effect, 100 is complete control, read-out: Wheat plant response rating): 0%
- pest or weed control at 250 g/ha [10, 14]: 0%
- pest or weed control at 250 g/ha [11, 14]: 95%
- pest or weed control at 250 g/ha (rice (Oryra sativa); [14]): 0%
- pest or weed control at 250 g/ha [12, 14]: 0%

SMILES: O=C1NC[C@H](c2cccc(C(F)(F)F)c2)[C@H]1C(=O)Nc1cccc2c1OC(F)(F)O2 [Compound 827]
- pest or weed control at 125 g/ha [1, 13]: 20%
- pest or weed control at 500 g/ha ([1]; Preemergence, visual injury vs untreated controls after approximately 10 d, read-out: Pigweed plant response rating (0 to 100 scale where 0 is no effect and 100 is complete control)): 40%
- pest or weed control at 125 g/ha ([2]; visual injury rating after approximately 10 d, read-out: Galium plant response rating (0 to 100 scale, 0 no effect, 100 complete control)): 40%
- pest or weed control at 125 g/ha (Kochia (Kochia scoparia); visual injury rating after approximately 10 d, read-out: Kochia plant response rating (0 to 100 scale, 0 no effect, 100 complete control)): 0%
- pest or weed control at 125 g/ha ([3]; visual injury rating after approximately 10 d, read-out: Barnyardgrass plant response rating (0 to 100 scale, 0 no effect, 100 complete control)): 70%
- pest or weed control at 125 g/ha ([4]; visual injury rating after approximately 10 d, read-out: Blackgrass plant response rating (0 to 100 scale, 0 no effect, 100 complete control)): 40%
- plant injury at 125 g/ha (corn (Zea mays); visual injury rating after approximately 10 d, read-out: Corn plant response rating (0 to 100 scale, 0 no effect, 100 complete control)): 20%
- pest or weed control at 125 g/ha ([5]; visual injury rating after approximately 10 d, read-out: Foxtail, Giant plant response rating (0 to 100 scale, 0 no effect, 100 complete control)): 80%
- pest or weed control at 125 g/ha ([6]; visual injury rating after approximately 10 d, read-out: Pigweed plant response rating (0 to 100 scale, 0 no effect, 100 complete control)): 0%
- pest or weed control at 125 g/ha ([7]; visual injury rating after approximately 10 d, read-out: Ragweed plant response rating (0 to 100 scale, 0 no effect, 100 complete control)): 0%
- pest or weed control at 125 g/ha ([8]; visual injury rating after approximately 10 d, read-out: Ryegrass, Italian plant response rating (0 to 100 scale, 0 no effect, 100 complete control)): 0%
- plant injury at 125 g/ha ([9]; visual injury rating after approximately 10 d, read-out: Wheat plant response rating (0 to 100 scale, 0 no effect, 100 complete control)): 20%
- pest or weed control at 250 g/ha [10, 15]: 30%
- pest or weed control at 250 g/ha [11, 15]: 75%
- pest or weed control at 250 g/ha (rice (Oryra sativa); [15]): 0%
- pest or weed control at 250 g/ha [12, 15]: 0%
